Results: ChEMBL document CHEMBL3046102, “Antibacterial and antifungal activities of some trimethoprim salts” (2012)
Values after ≈ are worked out from the molar mass of the structure shown.

What was measured:
Nakaseomyces glabratus [1] = assay: Antifungal activity against Candida glabrata clinical isolate after 24 to 48 hr by CLSI broth microdilution method; assay type: functional
Nakaseomyces glabratus [2] = assay: microbe, parasite or virus in culture; assay type: functional; settings: ATCC 36583
Description: Antifungal activity against Candida glabrata ATCC 36583 after 24 to 48 hr by CLSI broth microdilution method

Candida albicans [3] = assay: microbe, parasite or virus in culture; assay type: functional; settings: NRRL Y-27077
Description: Antifungal activity against Candida albicans NRRL Y-27077 after 24 to 48 hr by CLSI broth microdilution method

Enterococcus faecalis = assay: microbe, parasite or virus in culture; assay type: functional; settings: ATCC 29212
Description: Antibacterial activity against Enterococcus faecalis ATCC 29212 after 24 to 48 hr by CLSI broth microdilution method

Klebsiella pneumoniae = assay: microbe, parasite or virus in culture; assay type: functional; settings: ATCC 700603
Description: Antibacterial activity against Klebsiella pneumoniae ATCC 700603 after 24 to 48 hr by CLSI broth microdilution method

Salmonella typhimurium = assay: microbe, parasite or virus in culture; assay type: functional, Salmonella enterica subsp. enterica serovar Typhimurium; settings: Salmonella enterica, NRLL B-4420
Description: Antibacterial activity against Salmonella enterica subsp. enterica serovar Typhimurium NRRL B-4420 after 24 to 48 hr by CLSI broth microdilution method

Proteus vulgaris = assay: microbe, parasite or virus in culture; assay type: functional; settings: NRLL B-123
Description: Antibacterial activity against Proteus vulgaris NRLL B-123 after 24 to 48 hr by CLSI broth microdilution method

Pseudomonas aeruginosa = assay: microbe, parasite or virus in culture; assay type: functional; settings: ATCC 27853
Description: Antibacterial activity against Pseudomonas aeruginosa ATCC 27853 after 24 to 48 hr by CLSI broth microdilution method

Escherichia coli = assay: microbe, parasite or virus in culture; assay type: functional; settings: ATCC 35218
Description: Antibacterial activity against Escherichia coli ATCC 35218 after 24 to 48 hr by CLSI broth microdilution method

Staphylococcus aureus = assay: microbe, parasite or virus in culture; assay type: functional; settings: ATCC 25923
Description: Antibacterial activity against Staphylococcus aureus ATCC 25923 after 24 to 48 hr by CLSI broth microdilution method

Candida parapsilosis = assay: microbe, parasite or virus in culture; assay type: functional; settings: Lodderomyces parapsilosis, NRRL Y-12969
Description: Antifungal activity against Candida parapsilosis NRRL Y-12969 after 24 to 48 hr by CLSI broth microdilution method

[Candida] zeylanoides = microbe, parasite or virus in culture; assay type: functional; settings: Dujonia zeylanoides, NRRL Y-1774
Description: Antifungal activity against Candida zeylanoides NRRL Y-1774 after 24 to 48 hr by CLSI broth microdilution method

Pichia kudriavzevii = assay: microbe, parasite or virus in culture; assay type: functional; settings: NRRL Y-7179
Description: Antifungal activity against Pichia kudriavzevii NRRL Y-7179 after 24 to 48 hr by CLSI broth microdilution method

Candida tropicalis = assay: microbe, parasite or virus in culture; assay type: functional; settings: NRRL Y-12968
Description: Antifungal activity against Candida tropicalis NRRL Y-12968 after 24 to 48 hr by CLSI broth microdilution method

Cyberlindnera jadinii = assay: Antifungal activity against Cyberlindnera jadinii NRRL Y-900 after 24 to 48 hr by CLSI broth microdilution method; assay type: functional; settings: Williopsis jadinii
Candida albicans [4] = assay: Antifungal activity against Candida albicans clinical isolate after 24 to 48 hr by CLSI broth microdilution method; assay type: functional

MIC (Nakaseomyces glabratus [1]) [µg/mL] | MIC (Nakaseomyces glabratus [2]) [µg/mL] | MIC (Candida albicans [3]) [µg/mL] | MIC (Enterococcus faecalis) [µg/mL] | MIC (Klebsiella pneumoniae) [µg/mL] | MIC (Salmonella typhimurium) [µg/mL] | MIC (Proteus vulgaris) [µg/mL] | MIC (Pseudomonas aeruginosa) [µg/mL] | MIC (Escherichia coli) [µg/mL] | Structure (SMILES) | MIC (Staphylococcus aureus) [µg/mL] | MIC (Candida parapsilosis) [µg/mL] | MIC ([Candida] zeylanoides) [µg/mL] | MIC (Pichia kudriavzevii) [µg/mL] | MIC (Candida tropicalis) [µg/mL] | MIC (Cyberlindnera jadinii) [µg/mL] | MIC (Candida albicans [4]) [µg/mL]
50 | 50 | 50 | 50 | 50 | 50 | 50 | 50 | 50 | COc1cc(Cc2cnc(N)nc2N)cc(OC)c1OC.O=C(O)/C=C\C(=O)O [TRIMETHOPRIM MALEIC ACID SALT] | – | – | – | – | – | – | –
25 (≈ 86.1 µM) | 50 (≈ 172 µM) | 50 (≈ 172 µM) | 50 (≈ 172 µM) | 50 (≈ 172 µM) | 50 (≈ 172 µM) | 50 (≈ 172 µM) | 50 (≈ 172 µM) | 50 (≈ 172 µM) | COc1cc(Cc2cnc(N)nc2N)cc(OC)c1OC [TRIMETHOPRIM] | – | – | – | – | – | – | –
25 | 50 | 50 | 50 | 50 | 50 | 50 | 50 | 50 | COc1cc(Cc2cnc(N)nc2N)cc(OC)c1OC.O.O.O=C(O)C(=O)O [TRIMETHOPRIM OXALIC ACID SALT DIHYDRATE] | – | – | – | – | – | – | –

Structure (SMILES) | MIC (Nakaseomyces glabratus [1]) [µg/mL] | MIC (Nakaseomyces glabratus [2]) [µg/mL] | MIC (Candida albicans [3]) [µg/mL] | MIC (Enterococcus faecalis) [µg/mL] | MIC (Klebsiella pneumoniae) [µg/mL] | MIC (Salmonella typhimurium) [µg/mL] | MIC (Proteus vulgaris) [µg/mL] | MIC (Pseudomonas aeruginosa) [µg/mL] | MIC (Escherichia coli) [µg/mL] | MIC (Staphylococcus aureus) [µg/mL] | MIC (Candida parapsilosis) [µg/mL] | MIC ([Candida] zeylanoides) [µg/mL] | MIC (Pichia kudriavzevii) [µg/mL] | MIC (Candida tropicalis) [µg/mL] | MIC (Cyberlindnera jadinii) [µg/mL] | MIC (Candida albicans [4]) [µg/mL]
O=C(N[C@H](CO)[C@H](O)c1ccc([N+](=O)[O-])cc1)C(Cl)Cl [CHLORAMPHENICOL] | – | – | – | 12.5 (≈ 38.7 µM) | 12.5 (≈ 38.7 µM) | 12.5 (≈ 38.7 µM) | 50 (≈ 155 µM) | 50 (≈ 155 µM) | – | 50 (≈ 155 µM) | – | – | – | – | – | –
CC(=O)N1CCN(c2ccc(OCC3COC(Cn4ccnc4)(c4ccc(Cl)cc4Cl)O3)cc2)CC1 (configuration not stated) [KETOCONAZOLE] | 3.12 (≈ 5.88 µM) | 25 (≈ 47 µM) | 12.5 (≈ 23.5 µM) | – | – | – | – | – | – | – | 1.56 (≈ 2.94 µM) | 25 (≈ 47 µM) | 25 (≈ 47 µM) | 12.5 (≈ 23.5 µM) | 12.5 (≈ 23.5 µM) | 3.12 (≈ 5.88 µM)
